In patent publication US20170042888A1, “GLYT1 INHIBITORS FOR USE IN THE TREATMENT OF HEMATOLOGICAL DISORDERS” (Hoffmann-La Roche Inc., priority 2014, published 2017):

What was measured:
[1] = system: soluble transferrin receptor (sTfrR); test: 36-week oral study in cynomolgus monkeys, sTfR in peripheral blood (SISCAPA assay with mass spectrometry); type: in vivo, cynomolgus monkey; conditions: cynomolgus monkeys, 1, 3 and 9 mg/kg/day by capsule via oral gavage for 36 weeks (FIG. 5)
Procedure: FIG. 5 Effect of 4-(3-fluoro-5-trifluoromethyl-pyridin-2-yl)-piperazin-1-yl]-[5-methanesulfonyl-2-((S)-2,2,2-trifluoro-1-methyl-ethoxy)-phenyl]-methanone on sTrfR in female cynomolgus monkeys
4-(3-fluoro-5-trifluoromethyl-pyridin-2-yl)-piperazin-1-yl]-[5-methanesulfonyl-2-((S)-2,2,2-trifluoro-1-methyl-ethoxy)-phenyl]-methanone was administered by capsule via oral gavage to 4 male and 4 female cynomolgus monkeys per group at dose levels of control vehicle, 1, 3 and 9 mg/kg/day for 36 weeks. An additional 2 animals per sex from the control and high-dose group were maintained for an additional 13-week recovery period for assessment of reversibility of any findings. Measurement of sTfR was performed on various occasions during the study in peripheral blood samples. Measurements were done using a SISCAPA Assay Technologies Inc. developed assay, designed to identify the soluble fragment of the human transferrin receptor (sTfR) in serum, plasma and blood using the SISCAPA® workflow in combination with mass spectrometry. The human assay was adapted and validated for cynomolgus sTf measurements. Data shown represent group mean values, error bars indicate the standard deviation.

female Wistar rats [2] = test: 8-week dietary admix study in female Wistar rats, hematological parameters in peripheral blood (SYSMEX XT analyser); type: in vivo, rat
Procedure: FIG. 1 Effect of 4-(3-fluoro-5-trifluoromethyl-pyridin-2-yl)-piperazin-1-yl]-[5-methanesulfonyl-2-((S)-2,2,2-trifluoro-1-methyl-ethoxy)-phenyl]-methanone on mean group hemoglobin in female rats (8-week study)
4-(3-Fluoro-5-trifluoromethyl-pyridin-2-yl)-piperazin-1-yl]-[5-methanesulfonyl-2-((S)-2,2,2-trifluoro-1-methyl-ethoxy)-phenyl]-methanone was administered daily for 8-weeks by dietary admix to female Wistar rats to achieve doses of 1, 3, and 8 mg/kg/day, followed by a 4-week recovery period off treatment. The control group received standard diet only during the whole study period. At various time points during the study hematological parameters including Hb were investigated in peripheral blood using a SYSMEX XT analyser. Data represent group mean values and error bars indicate standard deviation (SD).
FIG. 3 Effect of 4-(3-fluoro-5-trifluoromethyl-pyridin-2-yl)-piperazin-1-yl]-[5-methanesulfonyl-2-((S)-2,2,2-trifluoro-1-methyl-ethoxy)-phenyl]-methanone on mean group MCH in female rats (8-week study)
4-(3-fluoro-5-trifluoromethyl-pyridin-2-yl)-piperazin-1-yl]-[5-methanesulfonyl-2-((S)-2,2,2-trifluoro-1-methyl-ethoxy)-phenyl]-methanone was administered daily for 8-weeks by dietary admix to female Wistar rats to achieve doses of 1, 3, and 8 mg/kg/day followed by a 4-week recovery period off treatment. The control group received standard diet during the whole study period. At various time points during the study hematological parameters including MCH were investigated in peripheral blood using a SYSMEX XT analyser. Data represent group mean values and error bars indicate the standard deviation (SD).

female Wistar rats [3] = test: 26-week oral gavage study in female Wistar rats, hematological parameters in peripheral blood (Bayer ADVIA 120); type: in vivo, rat
Procedure: FIG. 2 Effect of [5-Methanesulfonyl-2-((S)-2,2,2-trifluoro-1-methyl-ethoxy) phenyl]-(3-trifluoromethyl-5,7-dihydro-pyrrolo[3,4-b]pyridin-6-yl)-methanone on mean group hemoglobin in female rats (26-week study)
(§1) [5-Methanesulfonyl-2-((S)-2,2,2-trifluoro-1-methyl-ethoxy)phenyl]-(3-trifluoromethyl-5,7-dihydro-pyrrolo[3,4-b]pyridin-6-yl)-methanone was administered daily for 26-weeks by oral gavage to 20 females Wistar rats per group at doses of 2, 6 and 12 mg/kg/day, followed by a 4-week recovery period off treatment for which 6 additional females where allocated per dose group. The control group was treated with a vehicle control during the dosing period. At various time points during the study hematological parameters including Hb were investigated in peripheral blood using the Bayer, ADVIA 120 hematology analyser. Data represent group mean values and error bars indicate the standard deviation (SD).
FIG. 4 Effect of [5-Methanesulfonyl-2-((S)-2,2,2-trifluoro-1-methyl-ethoxy)phenyl](3-trifluoromethyl-5,7-dihydro-pyrrolo[3,4-b]pyridin-6-yl)-methanone on mean group MCH in female rats (26-week study)
as §1, with “[5-Methanesulfonyl-2-((S)-2,2,2-trifluoro-1-methyl-ethoxy)phenyl](3-trifluoromethyl-5,7-dihydro-pyrrolo[3,4-b]pyridin-6-yl)-methanone” for “[5-Methanesulfonyl-2-((S)-2,2,2-trifluoro-1-methyl-ethoxy)phenyl]-(3-trifluoromethyl-5,7-dihydro-pyrrolo[3,4-b]pyridin-6-yl)-methanone”, “haematology” for “hematology”

`C[C@H](Oc1ccc(S(C)(=O)=O)cc1C(=O)N1CCN(c2ncc(C(F)(F)F)cc2F)CC1)C(F)(F)F` [[4-(3-fluoro-5-trifluoromethyl-pyridin-2-yl)-piperazin-1-yl]-[5-methanesulfonyl-2-((S)-2,2,2-trifluoro-1-methyl-ethoxy)-phenyl]-methanone] was tested, and the “soluble transferrin receptor (sTfrR) in peripheral blood” value [1] was “dose-dependent decrease”, the “overall maximal decrease in total hemoglobin concentration” value (female Wistar rats [2]; female Wistar rats, 1, 3 and 8 mg/kg/day by dietary admix for 8 weeks) was at most 20% and the induced erythropoiesis type (female Wistar rats [2]; female Wistar rats, 1, 3 and 8 mg/kg/day by dietary admix for 8 weeks, all dose levels) was “microcytic, hypochromic erythropoiesis”. For the same compound, the total hemoglobin concentration (female Wistar rats [2]; female Wistar rats, 1, 3 and 8 mg/kg/day by dietary admix for 8 weeks, all dose levels (FIG. 1)) was “reduction”, the “intracellular hemoglobin, MCH” value (female Wistar rats [2]; female Wistar rats, 1, 3 and 8 mg/kg/day by dietary admix for 8 weeks, all dose levels (FIG. 3)) was “reduction” and the “reversibility of the hemoglobin effect” value (female Wistar rats [2]; female Wistar rats, 4-week recovery period off treatment after 8 weeks) was “reversible”.

For `C[C@H](Oc1ccc(S(C)(=O)=O)cc1C(=O)N1Cc2cc(C(F)(F)F)cnc2C1)C(F)(F)F` [[5-methanesulfonyl-2-((S)-2,2,2-trifluoro-1-methyl-ethoxy)-phenyl]-(3-trifluoromethyl-5,7-dihydro-pyrrolo[3,4-b]pyridin-6-yl)-methanone], the “overall maximal decrease in total hemoglobin concentration” value (female Wistar rats [3]; female Wistar rats, 2, 6 and 12 mg/kg/day by oral gavage for 26 weeks) was at most 20%, the induced erythropoiesis type (female Wistar rats [3]; female Wistar rats, 2, 6 and 12 mg/kg/day by oral gavage for 26 weeks, all dose levels) was “microcytic, hypochromic erythropoiesis” and the total hemoglobin concentration (female Wistar rats [3]; female Wistar rats, 2, 6 and 12 mg/kg/day by oral gavage for 26 weeks, all dose levels (FIG. 2)) was “reduction”. For the same compound, the “intracellular hemoglobin, MCH” value (female Wistar rats [3]; female Wistar rats, 2, 6 and 12 mg/kg/day by oral gavage for 26 weeks, all dose levels (FIG. 4)) was “reduction” and the “reversibility of the hemoglobin effect” value (female Wistar rats [3]; female Wistar rats, 4-week recovery period off treatment after 26 weeks) was “reversible”.
